This series addresses ATP-dependent translocase ABCB1 (Homo sapiens, UniProt P08183). The series is described as follows: TP_TRANSPORTER: inhibition of Doxorubicin and Vinblastine efflux in drug-resistant MCF-7 cells. The series is classed as functional, cell-based. As to conditions: mcf7.

The text below walks through data of ChEMBL document CHEMBL2074156, “Inhibition of P-glycoprotein activity and reversal of multidrug resistance in vitro by rosemary extract” (Eur J Cancer, 1999).

Chain of ATP-dependent translocase ABCB1 (P08183 whole entry): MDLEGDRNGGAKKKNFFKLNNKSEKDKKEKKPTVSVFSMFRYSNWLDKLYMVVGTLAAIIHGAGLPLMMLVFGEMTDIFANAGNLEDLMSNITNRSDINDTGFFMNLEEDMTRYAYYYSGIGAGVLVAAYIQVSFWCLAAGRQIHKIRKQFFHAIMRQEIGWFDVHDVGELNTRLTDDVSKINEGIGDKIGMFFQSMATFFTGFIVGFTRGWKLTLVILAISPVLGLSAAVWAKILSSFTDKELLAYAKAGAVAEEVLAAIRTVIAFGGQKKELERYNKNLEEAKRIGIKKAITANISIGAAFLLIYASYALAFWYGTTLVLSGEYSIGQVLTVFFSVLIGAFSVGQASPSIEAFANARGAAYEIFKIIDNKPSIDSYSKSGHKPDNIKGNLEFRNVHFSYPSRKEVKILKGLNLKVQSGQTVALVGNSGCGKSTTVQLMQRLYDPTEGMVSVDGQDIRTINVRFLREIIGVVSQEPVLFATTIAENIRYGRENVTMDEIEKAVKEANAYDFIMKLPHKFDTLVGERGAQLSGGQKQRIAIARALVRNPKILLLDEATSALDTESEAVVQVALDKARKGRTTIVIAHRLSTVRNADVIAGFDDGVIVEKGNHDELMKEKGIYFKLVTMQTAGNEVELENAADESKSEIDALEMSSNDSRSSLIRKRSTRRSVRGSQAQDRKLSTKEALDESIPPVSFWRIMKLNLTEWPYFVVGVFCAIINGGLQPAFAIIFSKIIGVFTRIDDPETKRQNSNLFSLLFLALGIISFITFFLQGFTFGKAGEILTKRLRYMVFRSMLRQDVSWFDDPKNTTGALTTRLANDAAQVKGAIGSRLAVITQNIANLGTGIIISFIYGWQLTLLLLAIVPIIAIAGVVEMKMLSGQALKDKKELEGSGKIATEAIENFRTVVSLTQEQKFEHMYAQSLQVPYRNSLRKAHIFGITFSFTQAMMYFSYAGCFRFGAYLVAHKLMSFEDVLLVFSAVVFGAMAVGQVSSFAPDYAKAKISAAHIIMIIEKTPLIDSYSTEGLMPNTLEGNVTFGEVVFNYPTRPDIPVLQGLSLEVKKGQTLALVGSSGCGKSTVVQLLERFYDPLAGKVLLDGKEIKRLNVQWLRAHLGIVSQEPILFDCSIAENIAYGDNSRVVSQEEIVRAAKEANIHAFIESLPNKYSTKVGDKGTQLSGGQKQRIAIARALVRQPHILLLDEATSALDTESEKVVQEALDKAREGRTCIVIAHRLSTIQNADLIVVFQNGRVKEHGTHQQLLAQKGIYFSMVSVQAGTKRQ

In the case of ROSEMARY EXTRACT, the Activity result was “inhibitor [+]”.
